Measured values taken from patent US6660742B2, “Compositions and methods of the use thereof achiral analogues of CC-1065 and the duocarmycins” (priority 2000, dated 2003).
Where “and” joins values, the source holds several entries; their conditions need not be identical. Equal values may be shown once. Read-outs that look alike come from different tables or passages of the source.

Tests used:
[1] = tested on: panel of 60 human cancer cell lines; test: NCI in-vitro cytotoxicity screen, whole panel; assay type: cell-based
[2] = tested on: SW-620; test: NCI screen, SW-620 (Colon Cancer); assay type: cell-based, human
Description: (§1) The compounds of this invention were also tested against the panel of 60 human cancer cell lines at the National Cancer Institute, Bethesda, Md. […] The cytrotoxicity studies were conducted using a 48 hour exposure, and measuring the optical density of sulforhodamide B-derived color.

[3] = tested on: IGROV1; test: NCI screen, IGROV1 (Ovarian Cancer); assay type: cell-based, human
Description: as §1

[4] = tested on: RPMI-8226
[5] = tested on: HOP-92
[6] = tested on: HCT-15
[7] = tested on: KM12
[8] = tested on: K-562; test: NCI screen, K-562 (Leukemia)
Description: as §1

[9] = tested on: UACC-62; test: NCI screen, UACC-62 (Melanoma)
Description: as §1

[10] = tested on: SF-268; test: NCI screen, SF-268 (CNS Cancer)
Description: The compounds of this invention were also tested against the panel of 60 human cancer cell lines at the National Cancer Institute, Bethesda, Md. (44). The cytrotoxicity studies were conducted using a 48 hour exposure, and measuring the optical density of sulforhodamide B-derived color.

[11] = tested on: SF-295; test: NCI screen, SF-295 (CNS Cancer)
Description: as §1

[12] = tested on: SF-539; test: NCI screen, SF-539 (CNS Cancer)
Description: as §1

[13] = tested on: 786-0; test: NCI screen, 786-0 (Renal Cancer)
Description: as §1

[14] = tested on: SN12C; test: NCI screen, SN12C (Renal Cancer)
Description: as §1

[15] = tested on: TK-10; test: NCI screen, TK-10 (Renal Cancer)
Description: as §1

[16] = tested on: MCF7; test: NCI screen, MCF7 (Breast Cancer)
Description: as §1

[17] = tested on: CAKI-1; test: NCI screen, CAKI-1 (Renal Cancer)
Description: as §1

[18] = tested on: MDA-N; test: NCI screen, MDA-N (Breast Cancer)
Description: as §1

[19] = tested on: HCT-116; test: NCI screen, HCT-116 (Colon Cancer)
Description: as §1

[20] = tested on: RXF 393; test: NCI screen, RXF 393 (Renal Cancer)
Description: as §1

[21] = tested on: PC-3; test: NCI screen, PC-3 (Prostrate Cancer)
Description: as §1

[22] = tested on: SK-OV-3; test: NCI screen, SK-OV-3 (Ovarian Cancer)
Description: as §1

[23] = tested on: NCI-H522; test: NCI screen, NCI-H522 (Non-Small Cell Lung Cancer)
Description: as §1

## O=C(Nc1cc(O)ccc1CCCl)c1cc2cc(NC(=O)c3cc4ccccc4o3)ccc2[nH]1 [Compound 1, 4-(2-Chloroethyl)-3-[5-(5-benzofuran-2-carboxamido)indole-2-carboxamido]phenol]
[1]; 48 hour exposure
  range of activity: micromolar range
[1]; leukemia cells
  activity against leukemia cells: none of these compounds showed much activity
[1]; melanoma cells
  activity against melanoma cells: active
[1]; solid tumors cells
  activity against solid tumors cells: strong activity
[2]
  GI50: 2010 nM
  TGI: 8.19E−06 Molar
[2]; Log10 Concentration −4.0
  Percent Growth: −66%
[2]; Log10 Concentration −8.0
  Percent Growth: 96%
[3]
  Percent Growth: −65%
[3]; IGROV1
  GI50: 1500 nM
  TGI: 3.41E−06 Molar
[3]; IGROV1, Log10 Concentration −4.0
  Percent Growth: −94%
[3]; IGROV1, Log10 Concentration −6.0
  Percent Growth: 75%
[3]; IGROV1, Log10 Concentration −7.0
  Percent Growth: 98%
[3]; IGROV1, Log10 Concentration −8.0
  Percent Growth: 93%
[4]
  CC50: > 100000 nM
  GI50: 1860 nM
  Percent Growth: −41%
  TGI: 5.59E−06 Molar
[5]
  GI50: 2620 nM
  TGI: 5.53E−06 Molar
[5]; Log10 Concentration −4.0
  Percent Growth: −92%
[5]; Log10 Concentration −8.0
  Percent Growth: 94%
[6]
  GI50: 1910 nM
  Percent Growth: −91%
  TGI: 4.89E−06 Molar
[7]
  GI50: 18800 nM
  Percent Growth: 93%
  TGI: 3.50E−05 Molar
[8]
  GI50: 2880 nM
  TGI: 9.59E−06 Molar
[8]; Log10 Concentration −4.0
  Percent Growth: −5%
[9]
  GI50: 1970 nM
  TGI: 3.49E−06 Molar
[9]; Log10 Concentration −4.0
  Percent Growth: −99%
[9]; Log10 Concentration −7.0
  Percent Growth: 104%
[9]; Log10 Concentration −8.0
  Percent Growth: 100%
[10]
  Percent Growth: 68% and 70% and 88%
[10]; SF-268
  GI50: 13400 nM
  TGI: 2.78E−05 Molar
[10]; SF-268, Log10 Concentration −4.0
  Percent Growth: −88%
[10]; SF-268, Log10 Concentration −7.0
  Percent Growth: 88%
[11]
  Percent Growth: 92% and 94%
[11]; SF-295
  GI50: 2320 nM
  TGI: 6.46E−06 Molar
[11]; SF-295, Log10 Concentration −4.0
  Percent Growth: −96%
[11]; SF-295, Log10 Concentration −5.0
  Percent Growth: −21%
[11]; SF-295, Log10 Concentration −6.0
  Percent Growth: 91%
[12]
  GI50: 1920 nM
  TGI: 4.16E−06 Molar
[12]; Log10 Concentration −4.0
  Percent Growth: −100%
[12]; Log10 Concentration −8.0
  Percent Growth: 92%
[13]
  GI50: 2620 nM
  TGI: 1.07E−05 Molar
[13]; Log10 Concentration −4.0
  Percent Growth: −50%
[13]; Log10 Concentration −5.0
  Percent Growth: 2%
[13]; Log10 Concentration −6.0
  Percent Growth: 85%
[13]; Log10 Concentration −7.0
  Percent Growth: 101%
[13]; Log10 Concentration −8.0
  Percent Growth: 98%
[14]
  GI50: 3100 nM
  TGI: 9.41E−06 Molar
[14]; Log10 Concentration −4.0
  Percent Growth: −77%
[14]; Log10 Concentration −5.0
  Percent Growth: −3%
[14]; Log10 Concentration −7.0
  Percent Growth: 102%
[15]
  Percent Growth: −31%
[15]; TK-10
  GI50: 2450 nM
  TGI: 5.85E−06 Molar
[15]; TK-10, Log10 Concentration −4.0
  Percent Growth: −95%
[15]; TK-10, Log10 Concentration −6.0
  Percent Growth: 101%
[15]; TK-10, Log10 Concentration −7.0
  Percent Growth: 98%
[15]; TK-10, Log10 Concentration −8.0
  Percent Growth: 104%
[16]
  GI50: 1030 nM
  TGI: 2.27E−06 Molar
[16]; Log10 Concentration −4.0
  Percent Growth: −100%
[16]; Log10 Concentration −8.0
  Percent Growth: 111%
[17]
  Percent Growth: 87% and 82%
[17]; CAKI-1
  GI50: 2300 nM
  TGI: 7.19E−06 Molar
[17]; CAKI-1, Log10 Concentration −4.0
  Percent Growth: −95%
[17]; CAKI-1, Log10 Concentration −5.0
  Percent Growth: −14%
[17]; CAKI-1, Log10 Concentration −8.0
  Percent Growth: 95%
[18]
  Percent Growth: −35%
[18]; MDA-N
  GI50: 2280 nM
  TGI: 5.47E−06 Molar
[18]; MDA-N, Log10 Concentration −4.0
  Percent Growth: −87%
[18]; MDA-N, Log10 Concentration −6.0
  Percent Growth: 97%
[18]; MDA-N, Log10 Concentration −7.0
  Percent Growth: 103%
[18]; MDA-N, Log10 Concentration −8.0
  Percent Growth: 100%
[19]
  Percent Growth: 81% and 99%
[19]; HCT-116
  GI50: 1940 nM
  TGI: 5.73E−06 Molar
[19]; HCT-116, Log10 Concentration −4.0
  Percent Growth: −89%
[19]; HCT-116, Log10 Concentration −5.0
  Percent Growth: −26%
[19]; HCT-116, Log10 Concentration −7.0
  Percent Growth: 95%
[20]
  GI50: 982 nM
  TGI: 2.18E−06 Molar
[20]; Log10 Concentration −4.0
  Percent Growth: −94%
[20]; Log10 Concentration −5.0
  Percent Growth: −97%
[20]; Log10 Concentration −6.0
  Percent Growth: 50%
[20]; Log10 Concentration −7.0
  Percent Growth: 74%
[20]; Log10 Concentration −8.0
  Percent Growth: 104%
[21]
  GI50: 969 nM
  TGI: 3.99E−06 Molar
[21]; Log10 Concentration −4.0
  Percent Growth: −99%
[21]; Log10 Concentration −7.0
  Percent Growth: 98%
[21]; Log10 Concentration −8.0
  Percent Growth: 96%
[22]
  GI50: 2930 nM
  TGI: 7.64E−06 Molar
[22]; Log10 Concentration −4.0
  Percent Growth: −99%
[22]; Log10 Concentration −7.0
  Percent Growth: 102%
[23]
  GI50: 933 nM
  TGI: 3.00E−06 Molar
[23]; Log10 Concentration −4.0
  Percent Growth: −80%
[23]; Log10 Concentration −7.0
  Percent Growth: 99%
[23]; Log10 Concentration −8.0
  Percent Growth: 98%
